What all share (experiment): combination Emax (second highest fraction inhibited in the dose matrix, 72 h); higher = more inhibition; extreme values may be limits of the assay
The subject of assay [1] is KYSE-410 (Esophageal Squamous Cell Carcinoma). A digest of the protocol:
(§1)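 After 24 hours at 37°C and 5% CO2 in 1536-well plates, cells in DMEM/F12 or RPMI plus 10% FBS received two-drug dose matrices for 72 hours. Viability came from CellTiter-Glo 2.0 luminescence and was scaled as inhibition, anchored at 0 by vehicle wells and at 1 by blank wells. Combination Emax is taken as the second-highest inhibition in the matrix, and Bliss excess as the observed combination effect less EA + EB − EA·EB, with EA and EB the single-agent effects.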

The test system of assay [2] is CAL-51 (Breast Carcinoma). The essentials:
as §1

The test system of assay [3] is CTB-1 (B-Cell Non-Hodgkin's Lymphoma). The essentials:
as §1

The subject of assay [4] is KARPAS-231 (B-Cell Non-Hodgkin's Lymphoma). A digest of the protocol: as §1
For assay [5], the system named is UMC-11 (Other Solid Carcinomas). A digest of the protocol: as §1
The test system of assay [6] is 639-V (Bladder Carcinoma). The essentials: as §1
The test system of assay [7] is MHH-PREB-1 (B-Cell Non-Hodgkin's Lymphoma). The essentials:
as §1

As to `CN(CCO)CC[C@H](CSc1ccccc1)Nc1ccc(S(=O)(=O)NC(=O)c2ccc(N3CCC([C@@H](O)c4ccccc4-c4ccc(Cl)cc4)CC3)cc2)cc1S(=O)(=O)C(F)(F)F` [AZD4320] + C[C@@H](Nc1cc(F)cc(F)c1)c1cc(C(=O)N(C)C)cc2c(=O)cc(N3CCOCC3)oc12 [AZD8186] (first compound max 1 µM, 7x7, partner max 3 µM), the “combination Emax” value in assay [1] stood at 0.299; in assay [2], 0.443; in assay [3], 0.669; in assay [4], 1; in assay [5] it was 0.375; in assay [6], 1. For the same molecule, in assay [7], the “combination Emax” value was 0.277.

The record behind these values is the supplement of paper PMC11061612.
